Like-named read-outs stand apart in the source and are kept apart here.
Columns and labels:
[1] = directly compressed, control pressure 10 KN; crystal form prepared in Example 8; FIG. 4
From the text: The crystal form prepared in the Example 8 of the present invention was directly compressed by a tableting machine, and the control pressure was 10 KN.

[2] = 25° C.

- Crystal form (40° C., 0 day): Crystal form E
- Purity (40° C., 0 day): 99.9%
- Crystal form (40° C., 5 days): Crystal form E
- Purity (40° C., 5 days): 99.9%
- Crystal form (40° C., 10 days): Crystal form E
- Purity (40° C., 10 days): 99.9%
- Crystal form (40° C., 30 days): Crystal form E
- Purity (40° C., 30 days): 99.9%
- Crystal form (Lighting (5000 lux), 0 day): Crystal form E
- Purity (Lighting (5000 lux), 0 day): 99.9%
- Crystal form (Lighting (5000 lux), 5 days): Crystal form E
- Purity (Lighting (5000 lux), 5 days): 99.9%
- Crystal form (Lighting (5000 lux), 10 days): Crystal form E
- Purity (Lighting (5000 lux), 10 days): 99.9%
- Crystal form (Lighting (5000 lux), 30 days): Crystal form E
- Purity (Lighting (5000 lux), 30 days): 99.9%
- Time stable (high temperature (40° C.)): at least 30 days
- Time stable (lighting (5000 Lux)): at least 30 days
- Time stable [2]: at least 6 months
- Crystal form ([2]; 0 day): Crystal form E
- Purity ([2]; 0 day): 99.9%
- Crystal form ([2]; 1 month): Crystal form E
- Purity ([2]; 1 month): 99.9%
- Crystal form ([2]; 3 months): Crystal form E
- Purity ([2]; 3 months): 99.9%
- Crystal form ([2]; 6 months): Crystal form E
- Purity ([2]; 6 months): 99.9%
Structure (SMILES): CCOc1ccc(Cc2cc([C@@H]3O[C@H](CO)[C@@H](O)[C@H](O)[C@H]3O)ccc2Cl)cc1 [Crystal form E, 2-chloro-5-(β-D-glucopyranosyl-1-yl)-4′-ethoxydiphenylmethane]
- Crystal form transformation under tableting [1]: didn't undergo crystal form transformation

Reference: patent US10464915B2, “Dapagliflozin crystal form and preparation method and use thereof” (Jiangsu Hansoh Pharmaceutical Group Co., Ltd., priority 2016, dated 2019)
